Molecules are shown by their SMILES. pIC50: −log10 of the molar value.

The first experiment deals with bacterial strain LF82 binding to the glycoprotein BSA-(Mannose)3. Description: Bacterial Binding Assay (BBA). It counts as cell-based, Escherichia coli. The following applies: LF82/Luciferase strain binding to BSA-(Man)3 coated plates, luminescence; read-out: Bacterial Binding Assay IC50. In short, it runs like this:
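Inhibition of LF82/luciferase E. coli adhesion is read as luminescence after washing off unbound cells. Compound and bacteria (10^7 per well) are co-incubated 40-75 min at room temperature on wells coated with 0.5-2 μg/mL BSA-(Man)3, with BSA-only wells as background; IC50 values derived.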
In the case of `OC[C@H]1O[C@H](C#Cc2ccc3c(c2)C2(CC(O)C(O)CO2)c2cc(C#C[C@H]4O[C@H](CO)[C@@H](O)[C@H](O)[C@@H]4O)ccc2-3)[C@@H](O)[C@@H](O)[C@@H]1O` (stereo partly drawn) [Compound 197], the pIC50 is 9.08.

The same experiment, now with this note: read-out: Bacterial Binding Assay IC50, LF82/Luciferase strain binding to BSA-(Man)3 coated plates, luminescence.
For the compound `OCC(O)CC1(O)c2cc(C#C[C@H]3O[C@H](CO)[C@@H](O)[C@H](O)[C@@H]3O)ccc2-c2ccc(C#C[C@H]3O[C@H](CO)[C@@H](O)[C@H](O)[C@@H]3O)cc21` (stereo partly drawn) [Compound 196, (2R,3S,4R,5S,6R)-2-[2-[9-(2,3-dihydroxypropyl)-9-hydroxy-7-[2-[(2R,3S,4R,5S,6R)-3,4,5-trihydroxy-6-(hydroxymethyl)tetrahydropyran-2-yl]ethynyl]fluoren-2-yl]ethynyl]-6-(hydroxymethyl)tetrahydropyran-3,4,5-triol], the pIC50 is 7.55. Take `OC[C@H]1O[C@H](C#Cc2ccc3c(c2)C(O)(C2CC2)c2cc(C#C[C@H]4O[C@H](CO)[C@@H](O)[C@H](O)[C@@H]4O)ccc2-3)[C@@H](O)[C@@H](O)[C@@H]1O` (stereo partly drawn) [Compound 114, (2R,3S,4R,5S,6R)-2-[2-[9-cyclopropyl-9-hydroxy-7-[2-[(2R,3S,4R,5S,6R)-3,4,5-trihydroxy-6-(hydroxymethyl)tetrahydropyran-2-yl]ethynyl]fluoren-2-yl]ethynyl]-6-(hydroxymethyl)tetrahydropyran-3,4,5-triol]: the pIC50 is 8.92.

With `CC1(C(=O)c2c(C#C[C@H]3O[C@H](CO)[C@@H](O)[C@H](O)[C@@H]3O)ccc3c2C2(CCNCC2)c2cc(C#C[C@H]4O[C@H](CO)[C@@H](O)[C@H](O)[C@@H]4O)ccc2-3)CC1` [Compound 225, [2,7-bis[2-[(2R,3S,4R,5S,6R)-3,4,5-trihydroxy-6-(hydroxymethyl)tetrahydropyran-2-yl]ethynyl]spiro[fluorene-9,4piperidine]-1yl]-(1-methylcyclopropyl)methanone], the pIC50 is 8.92. For `OC[C@H]1O[C@H](C#Cc2ccc(C#C[C@H]3O[C@H](CO)[C@@H](O)[C@H](O)[C@@H]3O)c3[nH]ncc23)[C@@H](O)[C@@H](O)[C@@H]1O` [Compound 171, (2R,3S,4R,5S,6R)-2-(hydroxymethyl)-6-[2-[7-[2-[(2R,3S,4R,5S,6R)-3,4,5-trihydroxy-6-(hydroxymethyl)tetrahydropyran-2-yl]ethynyl]-1H-indazol-4-yl]ethynyl]tetrahydropyran-3,4,5-triol], the pIC50 is 7.89.

Consider `OC[C@H]1O[C@H](C#Cc2ccc3c(c2)C(F)(F)c2cc(C#C[C@H]4O[C@H](CO)[C@@H](O)[C@H](O)[C@@H]4O)ccc2-3)[C@@H](O)[C@@H](O)[C@@H]1O` [Compound 116, (2R,3S,4R,5S,6R)-2-[2-[9,9-difluoro-7-[2-[(2R,3S,4R,5S,6R)-3,4,5-trihydroxy-6-(hydroxymethyl)tetrahydropyran-2-yl]ethynyl]fluoren-2-yl]ethynyl]-6-(hydroxymethyl)tetrahydropyran-3,4,5-triol], for which the pIC50 is 8.09. Same read-out and setting: with `COC(=O)Cc1cc(-c2cccc([C@H]3O[C@H](CO)[C@@H](O)[C@H](O)[C@@H]3O)c2)ccc1-c1cccc([C@H]2O[C@H](CO)[C@@H](O)[C@H](O)[C@@H]2O)c1` [Compound 140, Methyl 2-[2,5-bis[3-[(2R,3S,4R,5S,6R)-3,4,5-trihydroxy-6-(hydroxymethyl)tetrahydropyran-2-yl]phenyl]phenyl]acetate] the figure was 6.45; with `O=C(c1cnccn1)c1c(C#C[C@H]2O[C@H](CO)[C@@H](O)[C@H](O)[C@@H]2O)ccc2c1C1(CCNCC1)c1cc(C#C[C@H]3O[C@H](CO)[C@@H](O)[C@H](O)[C@@H]3O)ccc1-2` [Compound 236, [2,7-bis[2-[(2R,3S,4R,5S,6R)-3,4,5-trihydroxy-6-(hydroxymethyl)tetrahydropyran-2-yl]ethynyl]spiro[fluorene-9,4piperidine]-1yl]-pyrazin-2-yl-methanone], 9.30; with `CC1(C)c2cc(C#C[C@H]3O[C@H](CO)[C@@H](O)[C@H](O)[C@@H]3O)ccc2-c2ccc(C#C[C@H]3O[C@H](CO)[C@@H](O)[C@H](O)[C@@H]3O)cc21` [Compound 120, (2R,3S,4R,5S,6R)-2-[2-[9,9-dimethyl-7-[2-[(2R,3S,4R,5S,6R)-3,4,5-trihydroxy-6-(hydroxymethyl)tetrahydropyran-2-yl]ethynyl]fluoren-2-yl]ethynyl]-6-(hydroxymethyl)tetrahydropyran-3,4,5-triol], 8.92. For `OC[C@H]1O[C@H](C#Cc2ccc3c(c2)C2(SCCCS2)c2cc(C#C[C@H]4O[C@H](CO)[C@@H](O)[C@H](O)[C@@H]4O)ccc2-3)[C@@H](O)[C@@H](O)[C@@H]1O` [Compound 191], the pIC50 was 9.44. `Cc1cc(C2CC2c2ccc([C@H]3O[C@H](CO)[C@@H](O)[C@H](O)[C@@H]3O)cc2)ccc1[C@H]1O[C@H](CO)[C@@H](O)[C@H](O)[C@@H]1O` (stereo partly drawn) [Compound 156]: the pIC50 was 7.74. `CCC(=O)c1c(C#C[C@H]2O[C@H](CO)[C@@H](O)[C@H](O)[C@@H]2O)ccc2c1C1(CCNCC1)c1cc(C#C[C@H]3O[C@H](CO)[C@@H](O)[C@H](O)[C@@H]3O)ccc1-2` [Compound 223, 1-[2,7-bis[2-[(2R,3S,4R,5S,6R)-3,4,5-trihydroxy-6-(hydroxymethyl)tetrahydropyran-2-yl]ethynyl]spiro[fluorene-9,4piperidine]-1-yl]propan-1-one]: the pIC50 was 10.22. With `Cc1cc(C#C[C@H]2O[C@H](CO)[C@@H](O)[C@H](O)[C@@H]2O)c(Cl)cc1C#C[C@H]1O[C@H](CO)[C@@H](O)[C@H](O)[C@@H]1O` [Compound 90, (2R,3S,4R,5S,6R)-2-[2-[2-chloro-5-methy1-4-[2-[(2R,3S,4R,5S,6R)-3,4,5-trihydroxy-6-(hydroxymethyl)tetrahydropyran-2-yl]ethynyl]phenyl]ethynyl]-6-(hydroxymethyl)tetrahydropyran-3,4,5-triol], the pIC50 was 7.44. Same read-out and setting: the value for `CC(C)Oc1cc(C#C[C@H]2O[C@H](CO)[C@@H](O)[C@H](O)[C@@H]2O)ccc1C#C[C@H]1O[C@H](CO)[C@@H](O)[C@H](O)[C@@H]1O` [Compound 83, (2R,3S,4R,5S,6R)-2-(hydroxymethyl)-6-[2-[3-isopropoxy-4-[2-[(2R,3S,4R,5S,6R)-3,4,5-trihydroxy-6-(hydroxymethyl)tetrahydropyran-2-yl]ethynyl]phenyl]ethynyl]tetrahydropyran-3,4,5-triol] was 8.42. On the same count and under the same terms, the value for `Cn1nccc1C(=O)c1c(C#C[C@H]2O[C@H](CO)[C@@H](O)[C@H](O)[C@@H]2O)ccc2c1C1(CCNCC1)c1cc(C#C[C@H]3O[C@H](CO)[C@@H](O)[C@H](O)[C@@H]3O)ccc1-2` [Compound 237, [2,7-bis[2-[(2R,3S,4R,5S,6R)-3,4,5-trihydroxy-6-(hydroxymethyl)tetrahydropyran-2-yl]ethynyl]spiro[fluorene-9,4piperidine]-1yl]-(2-methylpyrazol-3-yl)methanone] was 9.66; that for `Cc1cc(C2CC2c2ccc([C@H]3O[C@H](CO)[C@@H](O)[C@H](O)[C@@H]3O)c(C)c2)ccc1[C@H]1O[C@H](CO)[C@@H](O)[C@H](O)[C@@H]1O` (stereo partly drawn) [Compound 160, (2R,3S,4R,5S,6R)-2-(hydroxymethyl)-6-[2-methyl-4-[2-[3-methyl-4-[(2R,3S,4R,5S,6R)-3,4,5-trihydroxy-6-(hydroxymethyl)tetrahydropyran-2-yl]phenyl]cyclopropyl]phenyl]tetrahydropyran-3,4,5-triol] was 7.77. Consider `O=C1CCC2(CCO1)c1cc(C#C[C@H]3O[C@H](CO)[C@@H](O)[C@H](O)[C@@H]3O)ccc1-c1ccc(C#C[C@H]3O[C@H](CO)[C@@H](O)[C@H](O)[C@@H]3O)cc12` [Compound 218, 2,7-bis[2-[(2R,3S,4R,5S,6R)-3,4,5-trihydroxy-6-(hydroxymethyl)tetrahydropyran-2-yl]ethynyl]spiro[fluorene-9,5oxepane]-2one], for which the pIC50 is 10.05. Take `O=C(c1ccno1)c1c(C#C[C@H]2O[C@H](CO)[C@@H](O)[C@H](O)[C@@H]2O)ccc2c1C1(CCNCC1)c1cc(C#C[C@H]3O[C@H](CO)[C@@H](O)[C@H](O)[C@@H]3O)ccc1-2` [Compound 232, [2,7-bis[2-[(2R,3S,4R,5S,6R)-3,4,5-trihydroxy-6-(hydroxymethyl)tetrahydropyran-2-yl]ethynyl]spiro[fluorene-9,4piperidine]-1yl]-isoxazol-5-yl-methanone]: the pIC50 was 10.40. As for `Cc1cc(C#C[C@H]2O[C@H](CO)[C@@H](O)[C@H](O)[C@@H]2O)ccc1C#C[C@H]1O[C@H](CO)[C@@H](O)[C@H](O)[C@@H]1O` [Compound 104, (2R,3S,4R,5S,6R)-2-(hydroxymethyl)-6-[2-[3-methyl-4-[2-[(2R,3S,4R,5S,6R)-3,4,5-trihydroxy-6-(hydroxymethyl)tetrahydropyran-2-yl]ethynyl]phenyl]ethynyl]tetrahydropyran-3,4,5-triol], the pIC50 is 7.47. In the case of `Cc1cc(-c2ccc(-c3ccc([C@H]4O[C@H](CO)[C@@H](O)[C@H](O)[C@@H]4O)c(C)c3)c(C)n2)ccc1[C@H]1O[C@H](CO)[C@@H](O)[C@H](O)[C@@H]1O` [Compound 155, (2R,3S,4R,5S,6R)-2-(hydroxymethyl)-6-[2-methyl-4-[2-methyl-6-[3-methyl-4-[(2R,3S,4R,5S,6R)-3,4,5-trihydroxy-6-(hydroxymethyl)tetrahydropyran-2-yl]phenyl]-3-pyridyl]phenyl]tetrahydropyran-3,4,5-triol], the pIC50 is 7.66.

In the case of `OC[C@H]1O[C@H](c2ccc(C#C[C@H]3O[C@H](CO)[C@@H](O)[C@H](O)[C@@H]3O)cc2)[C@@H](O)[C@@H](O)[C@@H]1O` [Compound 141, (2R,3S,4R,5S,6R)-2-(hydroxymethyl)-6-[2-[4-[(2R,3S,4R,5S,6R)-3,4,5-trihydroxy-6-(hydroxymethyl)tetrahydropyran-2-yl]phenyl]ethynyl]tetrahydropyran-3,4,5-triol], the pIC50 was 6.47.

(Values after patent US11634447B2 (priority 2012, dated 2023).)
